# According to US11261177B2, “Benzoxazinone derivatives useful as herbicides” (REDAG CROP PROTECTION LTD, priority 2017, dated 2022):
# Tests used:
# Format in all cases: in vivo
# [1] = tested on: 2 weed species (Stellaria media—Chickweed and Lolium perenne); test: Herbicidal activity screen, summary in words over both weed species; conditions: pre- and post-emergence, 0.2, 1 and 5 kg/ha
# Description: The compounds were screened at three concentrations (0.2, 1 and 5 kg/ha) against 2 weed species (Stellaria media—Chickweed and Lolium perenne). The seeds were sown in the cells of 96 cell trays (4-6 seeds per cell). For the pre-emergence assay, 75 μL of a suspension of the test compound, at the above doses, was added on top of the soil 1 day after sowing. For the post-emergence assay, the seedlings were sprayed with 200 μL of a suspension of the test compound two weeks after sowing. The formulation used is 25% acetone and 75% water/0.01% Tween 20. Each treatment was replicated three times. The plants were kept in a glasshouse (uncontrolled conditions) and assessed 7 days after treatment. A small number of compounds were tested in a first trial. A larger number of compounds were tested in a second trial. The assessment was based on the % control of plant growth in each cell.
# [2] = tested on: Stellaria media—Chickweed; test: Pre-emergence herbicidal assay, 96 cell trays, glasshouse; conditions: 168 h, second trial (Table 2), assessed 7 days after treatment, read-out: % control of plant growth; for pest or weed control at 200 g/ha: 0.2 kg/ha; for pest or weed control at 1000 g/ha: 1 kg/ha; for pest or weed control at 5000 g/ha: 5 kg/ha
# Procedure, shortened: (§1)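 Glasshouse screen, uncontrolled conditions, compounds tested across two trials. Formulation 25% acetone, 75% water with 0.01% Tween 20; rates 0.2–5 kg/ha; n=3. Assessment at 7 d as % growth control.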
# Lolium perenne [3] = test: as above; conditions: 168 h, second trial (Table 2), Lollium, assessed 7 days after treatment, read-out: % control of plant growth; for pest or weed control at 200 g/ha: 0.2 kg/ha; for pest or weed control at 1000 g/ha: 1 kg/ha; for pest or weed control at 5000 g/ha: 5 kg/ha
# Procedure, shortened: as §1
# [4] = tested on: Stellaria media—Chickweed; test: Post-emergence herbicidal assay, 96 cell trays, glasshouse; conditions: 168 h, second trial (Table 2), assessed 7 days after treatment, read-out: % control of plant growth; for pest or weed control at 200 g/ha: 0.2 kg/ha; for pest or weed control at 1000 g/ha: 1 kg/ha; for pest or weed control at 5000 g/ha: 5 kg/ha
# Procedure, shortened: as §1
# Lolium perenne [5] = test: as above; conditions: 168 h, second trial (Table 2), Lollium, assessed 7 days after treatment, read-out: % control of plant growth; for pest or weed control at 200 g/ha: 0.2 kg/ha; for pest or weed control at 1000 g/ha: 1 kg/ha; for pest or weed control at 5000 g/ha: 5 kg/ha
# Procedure, shortened: as §1
SMILES,herbicidal activity [1],pest or weed control at 200 g/ha [2] [%],pest or weed control at 1000 g/ha [2] [%],pest or weed control at 5000 g/ha [2] [%],pest or weed control at 200 g/ha (Lolium perenne [3]) [%],pest or weed control at 1000 g/ha (Lolium perenne [3]) [%],pest or weed control at 5000 g/ha (Lolium perenne [3]) [%],pest or weed control at 200 g/ha [4] [%],pest or weed control at 1000 g/ha [4] [%],pest or weed control at 5000 g/ha [4] [%],pest or weed control at 200 g/ha (Lolium perenne [5]) [%],pest or weed control at 1000 g/ha (Lolium perenne [5]) [%],pest or weed control at 5000 g/ha (Lolium perenne [5]) [%]
O=C1c2ccc(F)cc2C(=O)N1c1cc2c(cc1F)OC1(CC1)C(=O)N2CC1CC1 [Example 26],excellent herbicidal activity against all tested species,80 to 100,80 to 100,80 to 100,80 to 100,80 to 100,80 to 100,80 to 100,80 to 100,80 to 100,80 to 100,80 to 100,80 to 100
COCCN1C(=O)C2(CC2)Oc2cc(F)c(N3C(=O)c4ccc(F)cc4C3=O)cc21 [Example 27],excellent herbicidal activity against all tested species,80 to 100,80 to 100,80 to 100,20 to 80,80 to 100,80 to 100,80 to 100,80 to 100,80 to 100,20 to 80,80 to 100,80 to 100
"C#CCN1C(=O)C2(CC2)Oc2cc(F)c(N3C(=O)CCC3=O)cc21 [Example 28, 1-(7-Fluoro-3-oxo-4-(prop-2-yn-1-yl)-3,4-dihydrospiro[benzo[b][1,4]oxazine-2,1′-cyclopropan]-6-yl)pyrrolidine-2,5-dione]",excellent herbicidal activity against all tested species,80 to 100,80 to 100,80 to 100,80 to 100,80 to 100,80 to 100,80 to 100,80 to 100,80 to 100,20 to 80,80 to 100,80 to 100
"C#CCN1C(=O)C2(CC2)Oc2cc(F)c(N3C(=O)CC(C)CC3=O)cc21 [Example 29, 1-(7-Fluoro-3-oxo-4-(prop-2-yn-1-yl)-3,4-dihydrospiro[benzo[b][1,4]oxazine-2,1′-cyclopropan]-6-yl)-4-methylpiperidine-2,6-dione]",excellent herbicidal activity against all tested species,80 to 100,80 to 100,80 to 100,80 to 100,80 to 100,80 to 100,80 to 100,80 to 100,80 to 100,< 20,20 to 80,20 to 80
"C#CCN1C(=O)C2(CC2)Oc2cc(F)c(/N=c3\sc(=O)n4n3CCCC4)cc21 [Example 31, (Z)-7-Fluoro-6-((3-oxotetrahydro-1H,3H-[1,3,4]thiadiazolo[3,4-a]pyridazin-1-ylidene)amino)-4-(prop-2-yn-1-yl)spiro[benzo[b][1,4]oxazine-2,1′-cyclopropan]-3(4H)-one]",excellent herbicidal activity against all tested species,80 to 100,80 to 100,80 to 100,80 to 100,80 to 100,80 to 100,80 to 100,80 to 100,80 to 100,80 to 100,80 to 100,80 to 100
"C#CCN1C(=O)C2(CC2)Oc2cc(F)c(-n3c(=O)cc(C(F)(F)F)n(C)c3=O)cc21 [Example 34, 3-(7-Fluoro-3-oxo-4-(prop-2-yn-1-yl)-3,4-dihydrospiro[benzo[b][1,4]oxazine-2,1′-cyclopropan]-6-yl)-1-methyl-6-(trifluoromethyl)pyrimidine-2,4(1H,3H)-dione]",excellent herbicidal activity against all tested species,80 to 100,80 to 100,80 to 100,20 to 80,80 to 100,80 to 100,80 to 100,80 to 100,80 to 100,20 to 80,80 to 100,80 to 100
C#CCN1C(=O)C2(CC2)Oc2cc(F)c(-n3c(=O)cc(C(F)(F)F)n(CCC)c3=O)cc21 [Example 43],excellent herbicidal activity against all tested species,20 to 80,80 to 100,80 to 100,20 to 80,80 to 100,80 to 100,80 to 100,80 to 100,80 to 100,20 to 80,20 to 80,80 to 100
"C#CCN1C(=O)C2(CC2)Oc2cc(F)c(N3C(=O)C4CCCN4C3=O)cc21 (stereo not drawn) [Example 44, 2-(7-Fluoro-3-oxo-4-(prop-2-yn-1-yl)-3,4-dihydrospiro[benzo[b][1,4]oxazine-2,1′-cyclopropan]-6-yl)tetrahydro-1H-pyrrolo[1,2-c]imidazole-1,3(2H)-dione]",excellent herbicidal activity against all tested species,80 to 100,80 to 100,80 to 100,< 20,20 to 80,80 to 100,80 to 100,80 to 100,80 to 100,80 to 100,80 to 100,80 to 100
C#CCN1C(=O)C2(CC2)Oc2cc(F)c(N3C(=O)C4CCCCN4C3=O)cc21 (stereo not drawn) [Example 47],excellent herbicidal activity against all tested species,80 to 100,80 to 100,80 to 100,20 to 80,80 to 100,80 to 100,80 to 100,80 to 100,80 to 100,80 to 100,80 to 100,80 to 100
